Experimental data as given in PMC11242946, “Inhibition of ACE2–S Protein Interaction by a Short Functional Peptide with a Boomerang Structure” (Molecules, 2024).
No end group written: not given here.

Assays:
ACE2 = conditions: short peptide; ref not given ("It was reported"); cited from earlier work
From the text: To date, only a small number of drug design studies have focused on the SARS-CoV-2 receptor, with a particular emphasis on ACE2 antagonists. Exogenous proteins have disadvantages such as low efficiency in drug delivery and immunogenicity, whereas small-molecule ligands pose limitations such as challenges for manufacturing and increased toxicity. Thus, direct interception of the amino acids of ACE2 could be a simple and effective method. The length of the ACE2-derived peptide (CSNP1) is 16 amino acids.

[1] = target: ACE2–S protein interaction (Vero E6 cells) (Chlorocebus aethiops, UniProt Q1LZX8); experiment: Inhibition of S1 protein-ACE2 interaction, flow cytometry, Vero E6; assay type: cell-based, monkey; conditions: K5 1 h pre-incubation, S1 protein 10 μg/mL 1 h
A549 cells = experiment: MTT cytotoxicity, A549; assay type: cell-based, human; conditions: 24 h; for cell viability: MTT, % of untreated cells
Description: (§1) Vero E6 and A549 cells were cultured in DMEM containing 10% FBS and 5% CO2 at 37 degrees centigrade (°C). The medium was renewed once every three days. The cells were passaged when they attained confluence.
(§2) The cytotoxicity of the functional peptide was assessed using the MTT test. The test cells were seeded onto 96-well plates and grown overnight. The functional peptide K5 was introduced at concentrations of 0.1, 1, 10, and 100 μM for a 24 h incubation. MTT was then added, and cells were incubated for an additional 2 h. The medium was removed and replaced with 100 μL of DMSO. A measurement of absorbance was conducted at 492 nm (OD492) using a microplate reader (EnSpire, Cleveland, OH, USA). Cells without treatment were set as blanks, and the results are expressed as a percentage of the untreated cells.

Vero E6 cells [2] = experiment: MTT cytotoxicity, Vero E6; assay type: cell-based, monkey; conditions: 24 h; for cell viability: MTT, % of untreated cells
Description: as §1, §2

Vero E6 cells [3] = experiment: Cellular adsorption of FITC-labeled peptide (fluorescence microscopy); assay type: cell-based, monkey; conditions: cells treated solely with FITC
Description: The cellular adsorption behaviors of K5 were examined using FITC-labeled peptide. Vero E6 cells were incubated in 24-well plates in medium containing 100 μM of FITC-labeled peptide for two different durations: 1 min and 1 h. Subsequently, the cells were washed three times using a PBS solution containing heparin, then stained with DAPI for 30 min. Finally, they were fixed using a 4% PFA solution and then observed using an inverted fluorescence microscope manufactured by Zeiss in Oberkochen, Germany. The control group consisted of cells with only functional peptides added or only FITC added.

**Q.** For EDLFYQ [SAPs], which IC50 (ACE2) is on record?
**A.** at the mM level

**Q.** Which MFI reduction ([1]; FBS, 10 μM) does the source give for KYPAY [K5, KYPAY] here?
**A.** 50%

**Q.** What about the MFI decrease ([1]; FBS, 100 μM) of the same substance?
**A.** 70%

**Q.** What about the MFI decrease ([1]; PBS, 1 μM) of the same substance?
**A.** approximately 25%

**Q.** And the inhibition at 100 µM ([1]; Vero C1008, PBS, 100 μM, read-out: MFI decrease (inhibition))?
**A.** 78%

**Q.** What about the cell viability (A549 cells; 0.1 μM) of the same substance?
**A.** 93%

**Q.** And the cell viability (A549 cells; 1 μM)?
**A.** 100%

**Q.** And the cell viability (A549 cells; 10 μM)?
**A.** 103%

**Q.** And the cell viability (A549 cells; 100 μM)?
**A.** 101%

**Q.** What about the “change in cell viability / toxicity” value (A549 cells; 0.1-100 μM, physiological pH, A549) of the same substance?
**A.** no discernible change in cell viability

**Q.** What about the cell viability (Vero E6 cells [2]; 0.1 μM) of the same substance?
**A.** 108%

**Q.** What about the cell viability (Vero E6 cells [2]; 1 μM) of the same substance?
**A.** 105%

**Q.** What about the cell viability (Vero E6 cells [2]; 10 μM) of the same substance?
**A.** 96%

**Q.** And the cell viability (Vero E6 cells [2]; 100 μM)?
**A.** 94%

**Q.** And the “change in cell viability / toxicity” value (Vero E6 cells [2]; 0.1-100 μM, physiological pH, Vero E6)?
**A.** no discernible change in cell viability

**Q.** With fluorescein isothiocyanate [FITC] as the substance, how does the “cellular adsorption (fluorescence), FITC alone” value (Vero E6 cells [3]) read?
**A.** did not exhibit any fluorescence
